In patent US9572349B2 (priority 2009, dated 2017):

Tested on: D. citri
Type: in vivo, Diaphorina citri
Settings: four-arm olfactometer; for Percentage of individuals that chose each compound, final choice / Percentage of individuals that chose each compound, first choice: 10 μL pure compound in two arms versus clean air in two arms, 5 min observation; for Behavioural response of psyllids to pure compound (in words): 10 μL pure compound versus clean air

| Structure (SMILES) | Percentage of individuals that chose each compound, final choice | Percentage of individuals that chose each compound, first choice | Behavioural response of psyllids to pure compound (in words) |
| --- | --- | --- | --- |
| CC1=CC[C@H]2[C@H]3[C@@H]1[C@]2(C)CC[C@H]3C(C)C [α-copaene] | 33.0% | 42.0% | higher level of psyllids entering the unscented arm |
| C=C1CC/C=C(\C)CC[C@@H]2[C@@H]1CC2(C)C [β-caryophyllene] | 32.0% | 42.3% | higher level of psyllids entering the unscented arm |
